Where two headings read alike, the source gives them in different places.
How the values were obtained:
[1] = molecular target: PIM (PIM-1, PIM-2, and/or PIM-3); assay: PIM-1, PIM-2 and PIM-3 inhibition, biochemical chemiluminescence assays (Kinase Glo, IC50 determination); conditions: Table 1 activity class; PIM refers to PIM-1, PIM-2, and/or PIM-3; read-out: PIM IC50 (Activity B)
CK2 = CK2 (Homo sapiens, UniProt P68400); assay: CK2 inhibition, biochemical chemiluminescence holoenzyme assay (Kinase Glo, IC50 determination); conditions: Table 1 activity class; symbol given only if active; read-out: CK2 IC50 (Activity C)
Chain of CK2 (P68400 whole entry): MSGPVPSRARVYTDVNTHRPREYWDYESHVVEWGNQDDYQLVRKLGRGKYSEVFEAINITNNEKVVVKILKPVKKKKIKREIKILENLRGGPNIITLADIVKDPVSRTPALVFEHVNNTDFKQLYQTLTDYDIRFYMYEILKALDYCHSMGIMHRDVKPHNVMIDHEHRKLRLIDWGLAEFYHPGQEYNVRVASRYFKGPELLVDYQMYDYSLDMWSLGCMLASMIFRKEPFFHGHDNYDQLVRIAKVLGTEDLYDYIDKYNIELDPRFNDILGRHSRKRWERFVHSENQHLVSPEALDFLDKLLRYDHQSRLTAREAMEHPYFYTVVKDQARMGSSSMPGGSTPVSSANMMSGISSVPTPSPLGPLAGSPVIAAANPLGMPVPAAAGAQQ
Chain of CK2 (P67870 whole entry partner): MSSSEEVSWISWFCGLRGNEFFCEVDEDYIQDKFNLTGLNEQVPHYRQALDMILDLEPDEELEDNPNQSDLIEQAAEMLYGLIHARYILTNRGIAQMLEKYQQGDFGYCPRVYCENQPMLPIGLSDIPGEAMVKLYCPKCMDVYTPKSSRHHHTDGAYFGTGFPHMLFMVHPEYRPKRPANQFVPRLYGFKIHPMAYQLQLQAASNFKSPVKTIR
How it was run: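 Holoenzyme CK2 assay; compounds pre-incubated with substrate and enzyme, then reacted 150 min at 24-27° C. Remaining ATP measured as luminescence with Kinase Glo, and IC50 derived from the signal.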

CDC7 = CDC7 (Homo sapiens, UniProt O00311); assay: CDC7 inhibition, biochemical chemiluminescence assay (Kinase Glo, IC50 determination)
Chain of CDC7 (O00311 whole entry): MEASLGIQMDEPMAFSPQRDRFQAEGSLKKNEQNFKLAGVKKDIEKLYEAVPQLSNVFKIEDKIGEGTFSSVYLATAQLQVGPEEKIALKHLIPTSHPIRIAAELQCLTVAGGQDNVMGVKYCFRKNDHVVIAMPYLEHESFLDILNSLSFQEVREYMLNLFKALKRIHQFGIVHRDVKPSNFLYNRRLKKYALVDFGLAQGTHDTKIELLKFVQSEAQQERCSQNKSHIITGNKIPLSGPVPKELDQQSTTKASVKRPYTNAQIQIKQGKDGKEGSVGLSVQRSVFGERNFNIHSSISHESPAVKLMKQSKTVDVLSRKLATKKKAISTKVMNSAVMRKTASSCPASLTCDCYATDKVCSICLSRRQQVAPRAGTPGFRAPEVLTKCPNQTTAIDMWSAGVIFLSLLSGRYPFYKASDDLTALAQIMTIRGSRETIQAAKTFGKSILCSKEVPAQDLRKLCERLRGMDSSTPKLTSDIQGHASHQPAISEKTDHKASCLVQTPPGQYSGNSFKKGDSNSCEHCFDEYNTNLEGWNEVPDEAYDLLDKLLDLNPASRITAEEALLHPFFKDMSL
Chain of CDC7 (Q9UBU7 whole entry partner): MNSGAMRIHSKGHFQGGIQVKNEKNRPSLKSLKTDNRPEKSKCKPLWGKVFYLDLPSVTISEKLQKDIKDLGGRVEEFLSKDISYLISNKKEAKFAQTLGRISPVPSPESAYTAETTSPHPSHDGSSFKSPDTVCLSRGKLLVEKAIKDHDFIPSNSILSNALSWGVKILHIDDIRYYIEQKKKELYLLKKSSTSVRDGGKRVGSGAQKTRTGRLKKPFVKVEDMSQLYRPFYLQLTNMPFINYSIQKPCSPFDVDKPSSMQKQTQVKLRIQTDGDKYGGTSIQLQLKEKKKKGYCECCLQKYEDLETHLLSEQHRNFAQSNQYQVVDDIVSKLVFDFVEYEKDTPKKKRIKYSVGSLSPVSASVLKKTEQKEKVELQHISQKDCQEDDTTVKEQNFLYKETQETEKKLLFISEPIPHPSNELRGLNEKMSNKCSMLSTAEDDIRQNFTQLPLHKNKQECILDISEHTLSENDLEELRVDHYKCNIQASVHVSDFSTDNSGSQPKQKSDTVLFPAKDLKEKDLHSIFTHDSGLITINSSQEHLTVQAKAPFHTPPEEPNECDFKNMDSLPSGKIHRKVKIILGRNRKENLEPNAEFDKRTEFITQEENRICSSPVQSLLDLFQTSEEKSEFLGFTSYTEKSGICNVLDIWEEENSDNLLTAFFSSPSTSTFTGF
Method: Characterization of CDC7 Inhibition in a Biochemical Chemiluminesence Assay (IC50 Determination):
The IC50 evaluation of compounds against the CDC7 enzyme was performed in a Chemiluminesence assay utilizing a Greiner 384-well white binding plate format. […] Upon addition of 10 μL of CDC-7 (GB) to the designated well plates and subsequent incubation for ten minutes at ambient temperature, 10 μL of ATP mix in Tris Base was added. Following an incubation period of 90 minutes at ambient temperature (24-27° C.), 20 μL of Kinase Glo (Promega) was added to measure kinase activity by quantitating the amount of ATP remaining in solution. The luminescence was measured following a Luciferase Protocol on either EnVision or Victor plate readers.

[2] = Table 1 activity class, symbol given only if active, read-out: CDC7 IC50 (Activity A)
[3] = compounds in Table 1, read-out: CDC7 IC50 value

Structure (SMILES) | IC50 [1] [µM] | IC50 (CK2) [µM] | IC50 (CDC7; [2]) [µM] | IC50 (CDC7; [3]) [µM] | IC50 (CDC7; CDC7 IC50 (Activity A), Table 1 activity class, symbol given only if active) [µM] | IC50 (CDC7; CDC7 IC50 value, compounds in Table 1) [µM]
O=c1[nH]c(CN2C[C@@H]3C[C@H]2CN3)nc2c1oc1ccc(Br)cc12 [Compound 119, 8-bromo-2-[(1S,4S)-2,5-diazabicyclo[2.2.1]hept-2-ylmethyl][1]benzofuro[3,2-d]pyrimidin-4(3H)-one] | < 10 | < 10 |  |  | < 10 | < 0.1
O=c1[nH]c(-c2cc([N+](=O)[O-])ccc2Cl)nc2c1oc1ccc(Br)cc12 [Compound 126, 8-bromo-2-(2-chloro-5-nitrophenyl)[1]benzofuro[3,2-d]pyrimidin-4(3H)-one] | < 10 | < 10 | < 10 |  |  | 
CN(C)CC(=O)Nc1ccc(-c2nc3c(oc4ccc(Br)cc43)c(=O)[nH]2)c(Cl)c1 [Compound 127, N-[4-(8-bromo-4-oxo-3,4-dihydro[1]benzofuro[3,2-d]pyrimidin-2-yl)-3-chlorophenyl]-N′2′,N′2′-dimethylglycinamide] | < 10 | < 10 | < 10 |  |  | 
CS(=O)(=O)c1ccc(-c2nc3c(oc4ccc(Br)cc43)c(=O)[nH]2)c(Cl)c1 [Compound 128, 8-bromo-2-[2-chloro-4-(methylsulfonyl)phenyl][1]benzofuro[3,2-d]pyrimidin-4(3H)-one] | < 10 | < 10 | < 10 | < 0.1 |  | 
CC(C)(CN1CCOCC1)NCc1nc2c(oc3ccc(Br)cc32)c(=O)[nH]1 [Compound 130, 8-bromo-2-{[(1,1-dimethyl-2-morpholin-4-ylethyl)amino]methyl}[1]benzofuro[3,2-d]pyrimidin-4(3H)-one] | < 10 | < 10 | < 10 |  |  | 
Nc1ccc(Cl)c(-c2nc3c(oc4ccc(Br)cc43)c(=O)[nH]2)c1 [Compound 134, 2-(5-amino-2-chlorophenyl)-8-bromo[1]benzofuro[3,2-d]pyrimidin-4(3H)-one] | < 10 | < 10 | < 10 |  |  | 
CN(C)CCC(=O)Nc1ccc(-c2nc3c(oc4ccc(Br)cc43)c(=O)[nH]2)c(Cl)c1 [Compound 135, N-[4-(8-bromo-4-oxo-3,4-dihydro[1]benzofuro[3,2-d]pyrimidin-2-yl)-3-chlorophenyl]-N′3′,N′3′-dimethyl-beta-alaninamide] | < 10 | < 10 | < 10 |  |  | 
COc1ccc2oc3c(=O)[nH]c(-c4ccc(NCC5CCNCC5)cc4Cl)nc3c2c1 [Compound 138, 2-{2-chloro-4-[(piperidin-4-ylmethyl)amino]phenyl}-8-(methyloxy)[1]benzofuro[3,2-d]pyrimidin-4(3H)-one] | < 10 | < 10 | < 10 |  |  | 
O=C(Nc1ccc(-c2nc3c(oc4ccc(Br)cc43)c(=O)[nH]2)c(Cl)c1)C1CCCNC1 (centres unmarked) [Compound 140, N-[4-(8-bromo-4-oxo-3,4-dihydro[1]benzofuro[3,2-d]pyrimidin-2-yl)-3-chlorophenyl]piperidine-3-carboxamide] | < 10 | < 10 | < 10 |  |  | 
O=c1[nH]c(CN2CCNCC2)nc2c1oc1ccc(Br)cc12 [Compound 141, 8-bromo-2-(piperazin-1-ylmethyl)[1]benzofuro[3,2-d]pyrimidin-4(3H)-one] | < 10 | < 10 | < 10 |  |  | 
O=C(Nc1ccc(-c2nc3c(oc4ccc(Br)cc43)c(=O)[nH]2)c(Cl)c1)c1ccncc1 [Compound 143, N-[4-(8-bromo-4-oxo-3,4-dihydro[1]benzofuro[3,2-d]pyrimidin-2-yl)-3-chlorophenyl]pyridine-4-carboxamide] | < 10 | < 10 | < 10 |  |  | 
COc1ccc2oc3c(=O)[nH]c(-c4ccc(F)cc4Cl)nc3c2c1 [Compound 144, 2-(2-chloro-4-fluorophenyl)-8-(methyloxy)[1]benzofuro[3,2-d]pyrimidin-4(3H)-one] | < 10 | < 10 | < 10 |  |  | 
O=c1[nH]c(N2CCOCC2)nc2c1oc1ccc(Br)cc12 [Compound 147, 8-bromo-2-morpholin-4-yl[1]benzofuro[3,2-d]pyrimidin-4(3H)-one] | < 10 | < 10 | < 10 | < 0.1 |  | 

Now from value to compound, other results behind:

IC50 [1] [µM] | IC50 (CK2) [µM] | IC50 (CDC7; [2]) [µM] | IC50 (CDC7; [3]) [µM] | Structure (SMILES) | IC50 (CDC7; CDC7 IC50 (Activity A), Table 1 activity class, symbol given only if active) [µM] | IC50 (CDC7; CDC7 IC50 value, compounds in Table 1) [µM]
< 10 | < 10 | < 10 | < 0.1 | CC(C)(N)c1nc2c(oc3ccc(Cl)cc32)c(=O)[nH]1 [Compound 49, 2-(1-Amino-1-methylethyl)-8-chloro[1]benzofuro[3,2-d]pyrimidin-4(3H)-one] |  | 
< 10 | < 10 | < 10 |  | Cc1ccccc1-c1nc2c(oc3ccc(Br)cc32)c(=O)[nH]1 [Compound 60, 8-bromo-2-(2-methylphenyl)[1]benzofuro[3,2-d]pyrimidin-4(3H)-one] |  | 
< 10 | < 10 | < 10 |  | O=c1[nH]c(-c2nccs2)nc2c1oc1ccc(Br)cc12 [Compound 86, 8-bromo-2-(1,3-thiazol-2-yl)[1]benzofuro[3,2-d]pyrimidin-4(3H)-one] |  | 
< 10 | < 10 | < 10 |  | Cc1nccn1Cc1nc2c(oc3ccc(Br)cc32)c(=O)[nH]1 [Compound 100, 8-bromo-2-[(2-methyl-1H-imidazol-1-yl)methyl][1]benzofuro[3,2-d]pyrimidin-4(3H)-one] |  | 
< 10 | < 10 | < 10 | < 0.1 | O=C(O)C1CCN(Cc2nc3c(oc4ccc(Br)cc43)c(=O)[nH]2)C1 (centres unmarked) [Compound 103, 1-[(8-bromo-4-oxo-3,4-dihydro[1]benzofuro[3,2-d]pyrimidin-2-yl)methyl]pyrrolidine-3-carboxylic acid] |  | 
< 10 | < 10 | < 10 |  | O=c1[nH]c(-c2c(Cl)cncc2Cl)nc2c1oc1ccc(Br)cc12 [Compound 107, 8-bromo-2-(3,5-dichloropyridin-4-yl)[1]benzofuro[3,2-d]pyrimidin-4(3H)-one] |  | 
< 10 | < 10 | < 10 |  | O=c1[nH]c(CN2CCC(NCC3CCNCC3)C2)nc2c1oc1ccc(Br)cc12 (centres unmarked) [Compound 110, 8-bromo-2-({3-[(piperidin-4-ylmethyl)amino]pyrrolidin-1-yl}methyl)[1]benzofuro[3,2-d]pyrimidin-4(3H)-one] |  | 
< 10 | < 10 | < 10 |  | CN1CCN(c2ccc(CNCCc3nc4c(oc5ccc(Br)cc54)c(=O)[nH]3)cc2)CC1 [Compound 111, 8-bromo-2-[2-({[4-(4-methylpiperazin-1-yl)phenyl]methyl}amino)ethyl][1]benzofuro[3,2-d]pyrimidin-4(3H)-one] |  | 
< 10 | < 10 | < 10 |  | O=c1[nH]c(-c2ccncc2Cl)nc2c1oc1ccc(Br)cc12 [Compound 112, 8-bromo-2-(3-chloropyridin-4-yl)[1]benzofuro[3,2-d]pyrimidin-4(3H)-one] |  | 
< 10 | < 10 | < 10 |  | O=c1[nH]c(CN2CCN(CCn3ccnc3)CC2)nc2c1oc1ccc(Br)cc12 [Compound 113, 8-bromo-2-({4-[2-(1H-imidazol-1-yl)ethyl]piperazin-1-yl}methyl)[1]benzofuro[3,2-d]pyrimidin-4(3H)-one] |  | 
< 10 | < 10 | < 10 |  | O=c1[nH]c(CN2CCC(F)(F)CC2)nc2c1oc1ccc(Br)cc12 [Compound 114, 8-bromo-2-[(4,4-difluoropiperidin-1-yl)methyl][1]benzofuro[3,2-d]pyrimidin-4(3H)-one] |  | 
< 10 | < 10 | < 10 |  | CN1CCN(c2nc3c(oc4ccc(Br)cc43)c(=O)[nH]2)CC1 [Compound 115, 8-bromo-2-(4-methylpiperazin-1-yl)[1]benzofuro[3,2-d]pyrimidin-4(3H)-one] |  | 
< 10 | < 10 | < 10 |  | O=c1[nH]c(-c2ccc(Br)cc2Cl)nc2c1oc1ccc(Br)cc12 [Compound 116, 8-bromo-2-(4-bromo-2-chlorophenyl)[1]benzofuro[3,2-d]pyrimidin-4(3H)-one] |  | 
< 10 | < 10 | < 10 |  | CNC1CCN(Cc2nc3c(oc4ccc(Br)cc43)c(=O)[nH]2)C1 (centres unmarked) [Compound 118, 8-bromo-2-{[3-(methylamino)pyrrolidin-1-yl]methyl}[1]benzofuro[3,2-d]pyrimidin-4(3H)-one] |  | 
< 10 | < 10 | < 10 |  | CC(=O)Nc1ccc(-c2nc3c(oc4ccc(Br)cc43)c(=O)[nH]2)c(Cl)c1 [Compound 121, N-[4-(8-bromo-4-oxo-3,4-dihydro[1]benzofuro[3,2-d]pyrimidin-2-yl)-3-chlorophenyl]acetamide] |  | 
< 10 | < 10 | < 10 |  | Cc1n[nH]c2ccc(-c3nc4c(oc5ccc(Br)cc54)c(=O)[nH]3)cc12 [Compound 123, 8-bromo-2-(3-methyl-1H-indazol-5-yl)[1]benzofuro[3,2-d]pyrimidin-4(3H)-one] |  | 
< 10 | < 10 | < 10 |  | COc1ccc2oc3c(=O)[nH]c(-c4ccc([N+](=O)[O-])cc4Cl)nc3c2c1 [Compound 124, 2-(2-chloro-4-nitrophenyl)-8-(methyloxy)[1]benzofuro[3,2-d]pyrimidin-4(3H)-one] |  | 

— patent US20090247559A1 (Exelixis, Inc., priority 2007, published 2009)
